Reference: US20230069886A1, “AROMATIC SULPHONAMIDES DERIVATIVES THAT INHIBITS PDI A3, THEIR SYNTHESIS AND USE” (Uniwersytet Jagiellonski, priority 2020, published 2023)
Values after ≈ are worked out from the molar mass of the structure shown. Read-outs that look alike come from different tables or passages of the source.

Legend:
[1] = system: arterial thrombosis; experiment: In vivo models of arterial thrombosis; design: species or system rat or mice; conditions: FIG. 5
Method: To confirm antithrombotic activity of compounds of invention, inhibitors of PDIA3, pharmacological activity of selected compounds was tested in vivo in the rat or mice model of arterial thrombosis. Wistar rats were anaesthetized with pentobarbital (40 mg/kg, i.p.) and placed in a supine position on a heated (37° C.) operating table. Arterial thrombosis was induced by electrical stimulation of the right common carotid artery, as previously described (Kramkowski et al., 2012). Briefly, the anode, a stainless steel L-shaped wire, was inserted under the artery and connected to a constant current generator. The cathode was attached subcutaneously to the hind limb. The artery was stimulated (1 mA) for 10 min. Fifty-five minutes after the beginning of stimulation, the segment of the common carotid artery containing the formed thrombus was dissected and opened lengthwise, and the thrombus was completely removed and air-dried at room temperature for 24 h. Thrombus was then weighed in a blinded manner. Antithrombotic effects of compounds of invention in mice was analyzed using intravital fluorescence confocal microscopy as described previously (Hayashi T et al., 2008). […] Changes in fluorescence intensity were measured as described previously (Hayashi T et al., 2008, Kramkowski et al., 2002)

[2] = system: MDA-MB-231; experiment: MTT antiproliferative assay, 72 h, with or without estradiol, MDA-MB-231; assay type: cell-based, human; conditions: for IC50: Homo sapiens, MDA-MB-231, 72 hours exposition, MTT; for Sensitivity of MDA-MB-231 line after treatment with estradiol: estradiol (200 nM), Table 4
Method: (§1) Anticancer activity of selected compounds of invention, PDI A3-inhibitors has been also tested in vitro in antiproliferative assay in normoxic and hypoxic conditions as well in estrogen-stimulated cancer cells. In the experiment, cells were seeded on 96-well plates (Sarstedt, Germany) in appropriate culture medium at a density of 10^5 cells/mL 24 h before adding the tested compounds. Cells were treated with each compound in four concentrations in the range 0.1-100 μg/mL. […] After 72 h of compound treatment at 37° C., 5% CO2 humid atmosphere and in wo different oxygen level conditions: 21%—normal and <1%—hypoxia. In some experiments the MDA-MB-231 and MCF-7 cells were seeded with or without 200 nM estradiol and after 24 h the tested compounds were added. A previously described sulforhodamine B antiproliferative assay was used with minor modifications (Skehan P et al., 1990). Briefly, cells were fixed with 50 μL/well of 50% (w/v) trichloroacetic acid (Avantor Performance Materials, Gliwice, Poland). After 1 h incubation, plates were washed several times with tap water and 50 μL of 0.4% (w/v) solution of sulforhodamine B (Sigma-Aldrich, Germany) in 1% (v/v) acetic acid (Avantor Performance Materials, Gliwice, Poland) was added to each well. After 30 min incubation at room temperature, unbound dye was washed out with 1% (v/v) acetic acid, whereas bound dye was solubilized with 10 mM unbuffered TRIS (Avantor Performance Materials, Gliwice, Poland) solution. The entire procedure was performed using a BioTek EL-406 washing station (BioTek Instruments, USA). After additional 30 min, absorbance was read using a Biotek Hybrid H4 reader (BioTek Instruments, USA) at 540 nm wavelength. MTT assay was used alternatively for HL-60 cell line and in the experiment in which estrogens are added (specified in the table legend). Absorbance was measured using a Biotek Hybrid H4 reader at 570 nm wavelength for MTT assay.
(§2) Compounds at each concentration were tested in triplicate in a single experiment and each experiment was repeated at least three times independently. Results are presented as mean IC50±SD.

[3] = system: MCF-7; experiment: MTT antiproliferative assay, 72 h, with or without estradiol, MCF-7; assay type: cell-based, human; conditions: for IC50: Homo sapiens, MCF7, 72 hours exposition, MTT; for Lower sensitivity after treatment with estradiol in MCF-7: estradiol (200 nM), Table 4
Method: as §1, §2

[4] = system: HT-29; experiment: MTT antiproliferative assay, 72 h, HT-29; assay type: cell-based, human; conditions: Homo sapiens, HT-29, 72 hours exposition, read-out: IC50 [μg/ml] HT-29 normal
Method: as §1, with “A previously described sulforhodamine B antiproliferative assay was used with minor modifications (Skehan P et al., 1990).” left out, “MTT assay was used alternatively for HL-60 cell line and in the experiment in which estrogens are added (specified in the table legend).” left out
as §2

[5] = system: HL-60; experiment: MTT antiproliferative assay, 72 h, HL-60; assay type: cell-based, human; conditions: Homo sapiens, HL-60, 72 hours exposition, read-out: IC50 [μg/ml] HL-60 normal
Method: as §1, §2

[6] = system: MCF-10A; experiment: Selectivity index MCF-10A versus MCF-7; assay type: cell-based; conditions: 72 hours exposition
Method: as §1
Compounds at each concentration were tested in triplicate in a single experiment and each experiment was repeated at least three times independently. […]

[7] = system: human platelets; experiment: Light transmission aggregometry of collagen-stimulated human platelet-rich plasma; assay type: cell-based; conditions: human PRP, FIG. 2, 3
Method: Anti-platelet activity of compounds of invention was assessed using light transmission aggregometry assay of human platelet-rich plasma (PRP). Venous blood was obtained from male volunteers at the University Hospital Blood Bank Centre. Volunteer donors had not taken any medicines for the preceding two weeks. Blood was collected into vials containing sodium citrate (3.2%, 9:1 v/v) as an anti-coagulant agent. To obtain platelet rich plasma (PRP), blood was centrifuged at 260×g for 15 min. The platelet […] plasma fraction (used as a blank sample) was obtained by centrifugation of the remaining blood for 10 min at 2600×g. Aggregation of blood platelets was assessed in PRP with a dual channel Chronolog aggregometer (CHRONO-LOG) using a method previously described by Born^35. PRP (500 μl) was equilibrated for 2 min at 37° C. with a continuous stirring at 800 rpm and then stimulated with collagen to cause aggregation. At the beginning of each experiment, concentrations of collagen that induced sub-maximum aggregation response were determined. These concentrations were in the range of […], respectively. All the tested compounds were added 2 min prior to stimulation of platelets with collagen. Transmittance was read 6 min after stimulation of platelets with an agonist. […]

[8] = system: MDA-MB-231 cell transmigration across IL-1β-stimulated hLMVECs; experiment: Transendothelial migration of MDA-MB-231 cells across hLMVEC monolayer; assay type: cell-based, human; conditions: IL-1β 10 ng/mL (6 hours)-stimulated hLMVECs, 24 h co-culture, FIG. 6
Method: To assess whether compounds of invention, PDI A3-inhibitors are also effective as inhibitors of cancer cell transmigration through endothelium the transmigration assay with MDA-MB-231/lung microvascular endothelium was used as described previously (Stojak et al., 2018). Cell migration was assayed in 24-well, 6.5-mm internal-diameter Transwell plates (8.0 μm pore size; BD Pharmingen). Human lung microvascular endothelial cells (hLMVECs) were seeded into 24-well plates (seeding density 5×10^4 cells/insert) on the upper side of the filter and left to grow to confluence. After confluent monolayer formation, hLMVECs were pre-treated with 10 ng/mL IL-1β for 6 h. Prior to use in transmigration assay, cancer cells were pre-incubated with various concentrations (3, 10, 30, 50, 100 μM) of tested inhibitors of PDIA3, C-3390, C-3399 for 30 min. Then, MDA-MB-231 cells (each 5×10^4 per well) were placed into upper chambers and tested PDI inhibitors at various concentrations (1, 10, 30, 50, 100 μM) were given. Lower chambers were filled with medium containing chemoattractant (20% FBS or 100 ng/mL SDF-1α). After 24 h of co-culture, hLMVEC monolayers and non-migrating cancer cells on the upper surface of the membrane were removed. […] The cell number was determined by measuring the fluorescence using plate reader. […]

[9] = not pretreated with estradiol, read-out: IC50 [μg/ml] MDA-MB-231 normal
[10] = pretreated with 200 nM estradiol, read-out: IC50 [μg/ml] MDA-MB-231 +estradiol
[11] = not pretreated with estradiol, read-out: IC50 [μg/ml] MCF-7 normal
[12] = pretreated with 200 nM estradiol, read-out: IC50 [μg/ml] MCF-7 +estradiol

IC50 [2, 10] | IC50 [3, 12] | SMILES | Anti-thrombotic effects in vivo [1] | IC50 [2, 9] | IC50 [3, 11] | IC50 [4] | IC50 [5] | Selectivity index (SI): IC50 of MCF-10A/IC50 of MCF-7 [6] | Sensitivity of MDA-MB-231 line after treatment with estradiol [2] | Lower sensitivity after treatment with estradiol in MCF-7 [3] | Inhibition of platelet aggregation [7] | Inhibition of MDA-MB-231 cell transmigration [8]
– | – | COC(=O)C1CN1S(=O)(=O)c1ccc(N(C)C)cc1 (stereo not shown) [Compound C-3343, Methyl 1-[4-(dimethylamino)phenyl]sulfonylaziridine-2-carboxylate] | anti-thrombotic effects | – | – | – | – | – | – | – | – | –
3.2 ± 0.3 µg/mL (≈ 10.5 µM) | 2.6 ± 0.5 µg/mL (≈ 8.54 µM) | CN(C)C(=O)C1CN1S(=O)(=O)c1ccc2ccccc2c1 (stereo not shown) [Compound C-3373, N,N-Dimethyl-1-(2-naphthylsulfonyl)aziridine-2-carboxamide] | – | 3.2 ± 0.1 µg/mL (≈ 10.5 µM) | 3.3 ± 0.1 µg/mL (≈ 10.8 µM) | 33.4 ± 1.1 µg/mL (≈ 110 µM) | 3.1 ± 0.1 µg/mL (≈ 10.2 µM) | 1.20 | – | – | – | –
7 ± 1.1 µg/mL (≈ 20.9 µM) | 3.4 ± 0.3 µg/mL (≈ 10.2 µM) | COC(=O)C1CN1S(=O)(=O)c1cccc2cc(N(C)C)ccc12 (stereo not shown) [Compound C-3375, Methyl 1-[[6-(dimethylamino)-1-naphthyl]sulfonyl]aziridine-2-carboxylate] | – | 3.8 ± 0.1 µg/mL (≈ 11.4 µM) | 3.5 ± 0.4 µg/mL (≈ 10.5 µM) | 27.8 ± 7.5 µg/mL (≈ 83.1 µM) | 3.3 ± 0.2 µg/mL (≈ 9.87 µM) | 6.90 | slightly lower sensitivity | not observed | – | –
6.4 ± 1.9 µg/mL (≈ 19.1 µM) | 4.3 ± 0.3 µg/mL (≈ 12.9 µM) | COC(=O)C1CN1S(=O)(=O)c1ccc2c(N(C)C)cccc2c1 (stereo not shown) [Compound C-3399, Methyl 1-[[5-(dimethylamino)-2-naphthyl]sulfonyl]aziridine-2-carboxylate] | – | 2.9 ± 0.3 µg/mL (≈ 8.67 µM) | 3.7 ± 0.3 µg/mL (≈ 11.1 µM) | 4.3 ± 0.2 µg/mL (≈ 12.9 µM) | 2.4 ± 0.3 µg/mL (≈ 7.18 µM) | 1.6 | slightly lower sensitivity | not observed | lowest EC50 | inhibited MDA-MB-231 cell transmigration
